Here are results for eight compounds from PubChem BioAssay (NCI).

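Following 48 hours of exposure in 96-well plates, responses at five concentrations were used to interpolate endpoints linearly. GI50 is the concentration that inhibits growth by half. TGI is the concentration that stops growth completely.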

Some test systems named below: SN12C renal; HT29 colon; OVCAR-5 ovarian; SNB-75 CNS; SW-620 colon; NCI-H226 lung; NCI-H460 lung; CCRF-CEM leukemia; COLO 205 colon; NCI/ADR-RES ovarian.
What all share (assay): NCI anticancer screen, dose series, 48 h

In the case of `COc1ccc(CN2c3ccccc3Sc3ccccc32)cc1O`, the GI50 is 1.29 µM in the assay with SN12C renal; 0.724 µM in the assay on HT29 colon; 12.7 µM in the assay on OVCAR-5 ovarian; 0.18 µM in the assay with SNB-75 CNS; 0.504 µM in the assay on SW-620 colon; 12.2 µM in the assay on NCI-H226 lung. Moreover, the GI50 with NCI-H460 lung was 0.444 µM; in the assay on CCRF-CEM leukemia it was 0.411 µM; in the assay on COLO 205 colon, 0.789 µM; with NCI/ADR-RES ovarian it was 0.291 µM. The TGI in the assay on SN12C renal worked out at 22.3 µM; in the assay on HT29 colon it was 6.4 µM; in the assay with OVCAR-5 ovarian, 36 µM; with SNB-75 CNS, 13.3 µM; in the assay with SW-620 colon, 17.7 µM; in the assay with NCI-H226 lung it was 35 µM. Besides, the TGI with NCI-H460 lung worked out at 13.4 µM; in the assay on CCRF-CEM leukemia, 22.4 µM; in the assay on COLO 205 colon, 4.6 µM; with NCI/ADR-RES ovarian, 0.863 µM.
As to `CC(C)(O)c1cc(Nc2cc(Oc3cn(C4CC4)nc3C3CCOCC3)ccn2)ccn1`, the GI50 is more than 100 µM with SN12C renal; 68 µM in the assay with HT29 colon; more than 100 µM in the assay on OVCAR-5 ovarian; 22 µM in the assay with SNB-75 CNS; more than 100 µM in the assay on SW-620 colon; more than 100 µM in the assay on NCI-H226 lung. For the same compound, the GI50 with NCI-H460 lung was more than 100 µM; with CCRF-CEM leukemia, more than 100 µM; with COLO 205 colon, 60.9 µM; with NCI/ADR-RES ovarian, more than 100 µM. Further, the TGI in the assay on SN12C renal, in the assay with HT29 colon, with OVCAR-5 ovarian, with SNB-75 CNS, with SW-620 colon and in the assay with NCI-H226 lung was more than 100 µM in each case. In addition, the TGI in the assay on NCI-H460 lung, with CCRF-CEM leukemia, in the assay with COLO 205 colon and in the assay with NCI/ADR-RES ovarian was more than 100 µM throughout.
Consider `COc1cc(C=NCC(=O)CSC(c2ccccc2)c2ccccc2)ccc1O`, for which the GI50 with SN12C renal is 14.1 µM; in the assay on HT29 colon it was 15.3 µM; in the assay with OVCAR-5 ovarian it was 16.4 µM; with SNB-75 CNS, 13 µM; in the assay on SW-620 colon it was 15.5 µM; with NCI-H226 lung it was 16.8 µM. The GI50 was 20.1 µM in the assay with NCI-H460 lung, 8.42 µM in the assay on CCRF-CEM leukemia, 10.6 µM in the assay on COLO 205 colon and 7.78 µM with NCI/ADR-RES ovarian. In addition, the TGI worked out at 28.1 µM in the assay with SN12C renal; 28.6 µM with HT29 colon; 30.4 µM in the assay with OVCAR-5 ovarian; 25.9 µM with SNB-75 CNS; 31.4 µM in the assay on SW-620 colon; 38.5 µM in the assay with NCI-H226 lung. For the same compound, the TGI in the assay on NCI-H460 lung was 56.2 µM; with CCRF-CEM leukemia it was 50.9 µM; in the assay with COLO 205 colon it was 22.4 µM; in the assay on NCI/ADR-RES ovarian, 29.2 µM.
On to `O=C1C=C(NCCc2ccccc2)c2ccccc2C1=O`, for which the TGI was 3.37 µM in the assay on SN12C renal; 7.27 µM in the assay with HT29 colon; 3.39 µM in the assay on OVCAR-5 ovarian; 3.14 µM in the assay on SNB-75 CNS; 4.31 µM with SW-620 colon; 4.61 µM in the assay on NCI-H226 lung. Moreover, the TGI is 3.18 µM with NCI-H460 lung, 67.9 µM with CCRF-CEM leukemia, 3.6 µM with COLO 205 colon and 23 µM with NCI/ADR-RES ovarian.
As to `O=C(O)CCN1C(=S)CSC1=S`, the TGI in the assay with SN12C renal, in the assay on HT29 colon, in the assay with OVCAR-5 ovarian, in the assay with SNB-75 CNS, in the assay with SW-620 colon and in the assay on NCI-H226 lung was more than 100 µM throughout. Moreover, the TGI in the assay on NCI-H460 lung, in the assay with CCRF-CEM leukemia, in the assay with COLO 205 colon and with NCI/ADR-RES ovarian was more than 100 µM each time.
With `CC(C)(C)OC(=O)NCCCCCCCCCCCCn1c2c(c3ccccc3c1=O)C(=O)c1ccccc1-2`, the GI50 in the assay on SN12C renal was more than 100 µM; with HT29 colon, more than 100 µM; in the assay with OVCAR-5 ovarian, 75.9 µM; in the assay on SNB-75 CNS it was 8.56 µM; in the assay with SW-620 colon, more than 100 µM; in the assay on NCI-H226 lung, 58.1 µM. The GI50 in the assay with NCI-H460 lung is more than 100 µM; in the assay with CCRF-CEM leukemia, 43.3 µM; in the assay with COLO 205 colon it was more than 100 µM; in the assay on NCI/ADR-RES ovarian it was 51.2 µM. The TGI with SN12C renal is more than 100 µM; in the assay on HT29 colon, more than 100 µM; with OVCAR-5 ovarian it was more than 100 µM; in the assay on SNB-75 CNS, 26.3 µM; in the assay with SW-620 colon, more than 100 µM; in the assay on NCI-H226 lung, more than 100 µM. The TGI in the assay on NCI-H460 lung, in the assay with CCRF-CEM leukemia, in the assay on COLO 205 colon and with NCI/ADR-RES ovarian was more than 100 µM in each case.
Regarding `C=C(CN1CCc2ccccc2C1)c1ccc(CCCC(=O)Nc2ccccc2N)cc1`, the GI50 is 13 µM with SN12C renal; 13.1 µM with HT29 colon; 26.5 µM in the assay with OVCAR-5 ovarian; 3.33 µM in the assay with SNB-75 CNS; 15.6 µM in the assay with SW-620 colon; 28.8 µM with NCI-H226 lung. Further, the GI50 is more than 100 µM in the assay with NCI-H460 lung, 3.06 µM in the assay on CCRF-CEM leukemia, 17 µM in the assay with COLO 205 colon and 17.4 µM with NCI/ADR-RES ovarian. Also, the TGI with SN12C renal was 28.4 µM; with HT29 colon, 30.4 µM; with OVCAR-5 ovarian it was 80.2 µM; in the assay on SNB-75 CNS, 27.7 µM; with SW-620 colon it was 32.1 µM; in the assay with NCI-H226 lung, 94.6 µM. Besides, the TGI with NCI-H460 lung was more than 100 µM; in the assay with CCRF-CEM leukemia, more than 100 µM; with COLO 205 colon it was 33.1 µM; in the assay with NCI/ADR-RES ovarian, 51.6 µM.
Consider `COC(=O)c1c(C(=O)O)c(-c2ccccc2)c(-c2ccccc2)c(-c2ccccc2)c1-c1ccccc1`, for which the GI50 in the assay on SN12C renal was more than 100 µM; with HT29 colon, more than 100 µM; in the assay with OVCAR-5 ovarian, more than 100 µM; in the assay on SNB-75 CNS, 47.6 µM; with SW-620 colon, more than 100 µM; with NCI-H226 lung, more than 100 µM. Further, the GI50 in the assay with NCI-H460 lung, with CCRF-CEM leukemia, in the assay with COLO 205 colon and in the assay with NCI/ADR-RES ovarian was more than 100 µM in each case. In addition, the TGI with SN12C renal, in the assay with HT29 colon, in the assay on OVCAR-5 ovarian, in the assay with SNB-75 CNS, with SW-620 colon and with NCI-H226 lung was more than 100 µM in each case. Also, the TGI with NCI-H460 lung, in the assay on CCRF-CEM leukemia, in the assay with COLO 205 colon and in the assay on NCI/ADR-RES ovarian was more than 100 µM each time.
